Laboratory results as given in ChEMBL document CHEMBL1150048, “Echinofuran, a New Furanosesquiterpene from the Gorgonian Echinogorgia praelonga” (J Nat Prod, 1992).
The source made the active and inactive calls. The rule behind the calls is not given here.

How the values were obtained:
[1] = system: Staphylococcus aureus; assay: Antimicrobial activity against Staphylococcus aureus at 100 ug/8 mm disk; assay type: functional, organism-based
[2] = system: Cladosporium; assay: Antimicrobial activity against Cladosporium at 100 ug/8 mm disk; assay type: functional, organism-based
[3] = Inhibition of cell division in sea urchin fertilized egg at 1 ug/ml; conditions: echinoidea, fertilized sea urchin eggs
[4] = system: Bacillus subtilis; assay: Antimicrobial activity against Bacillus subtilis at 100 ug/8 mm disk; assay type: functional, organism-based
[5] = system: Aspergillus sp.; assay: Antimicrobial activity against Aspergillus sp. at 100 ug/8 mm disk; assay type: functional, organism-based
[6] = system: Poecilia reticulata; assay: Ichthyotoxicity against Poecilia reticulata up to 10 ppm; assay type: organism-based; conditions: in vivo
[7] = system: Escherichia coli; assay: Antimicrobial activity against Escherichia coli at 100 ug/8 mm disk; assay type: functional, organism-based

inhibition at 1 ug/ml [3]: 90%
SMILES: C=C1CCC2=C(C)Cc3occ(C)c3C[C@@H]12 [ECHINOFURAN]
Activity [1]: inactive | Activity [2]: inactive | Activity [4]: inactive | Activity [5]: inactive | Activity [6]: Non-toxic | Activity [7]: inactive
